From patent US20170348258A1, “3-Amino Benzamide Derivative Serving As B-Lactam Auxiliary Antibiotic, Preparation Method and Use Thereof” (THE HONG KONG POLYTECHNIC UNIVERSITY, priority 2014, published 2017)
Converted amounts (≈) assume the structure as drawn. Read-outs that look alike come from different tables or passages of the source.

Columns and labels:
B. subtilis 168 = test: Antibacterial susceptibility test (MIC, microbroth dilution); format: cell-based; conditions: 18 hours at 37° C., >90% inhibition of bacterial growth, read-out: MIC, BS 168
From the text: (§1) The bacterial strains used in microbial susceptibility test were E. coli, S. aureus 29213 and B. subtilis 168. E. coli and S. aureus 29213 were obtained from the laboratory of the Hong Kong Polytechnic University. B. subtilis 168 was purchased from American Type Culture Collection (USA). The mammalian cell lines L929 (mouse peritoneal fibroblast), LCC6 (a wild type breast cancer cell line), LCC6MDR (P-gp over-expressed breast cancer cell line) were stocks in our department. Nutrient Agar, tryptone and yeast extract were purchased from Oxoid Limited (Nepean, Ontario, Canada). Luria-Bertani (LB) medium was prepared from 2 g tryptone, 1 g yeast extract, and 2 g sodium chloride in 200 ml deionized water and sterilized. Müller-Hinton broth (MHB), cation-adjusted Müller-Hinton broth (MHB) and trypticase soy broth (TSB) for microbial susceptibility test were purchased from Becton, Dickinson and Company (New Jersey, USA). A microplate reader (Bio-Rad Laboratories Model 680) is used to measure bacterial growth and cytotoxicity. An Olympus FSX100® Bio Imaging Navigator Microscope was used to observe the morphology of B. subtilis cell.
(§2) The minimum inhibitory concentration (MIC) of each compound was determined using microbroth dilution method according to the National Committee for Clinical Laboratory Standards (CLSI) guidelines. All Compounds were dissolved in DMSO and diluted in a serial two-fold manner. A single colony of bacterial strain on a TSB agar plate was inoculated in 5 mL MHB or CA-MHB. The bacterial cells were incubated at 37° C. until the optimal density (OD600) of the growing cells reached 1.0. The cells were then diluted to a final concentration of approximately 5×10^5 CFU/mL in a serial two-fold manner in a 96-well microtiter plate (Iwaki, Japan). Compound 3 and PC190723 were used as positive controls. […] Table 1 below summarizes the MIC of all synthesized compounds.

E. coli = test: as above; format: cell-based; conditions: 18 hours at 37° C., >90% inhibition of bacterial growth
From the text: as §1, §2

S. aureus 29213 = test: as above; format: cell-based; conditions: 18 hours at 37° C., >90% inhibition of bacterial growth
From the text: as §1, §2

MRSA strain USA300#757 = test: Fractional Inhibitory Concentration Index (FICI) determination; format: cell-based, S. aureus
Protocol: The bacterial strains used in this study were clinically isolated MRSA strains USA300#757 and #2960 which were obtained from our laboratory. Determination of the Fractional Inhibitory Concentration Index (FICI) was adopted by the Müller-Hinton broth (MHB) dilution method as previously described. Twelve serial two-fold dilutions of PC190723, F332 and F361 were prepared in the 96-well microplate with concentration ranging from 512 to 0.25 μg/mL. […] Lastly, the compounds and the β-lactams were mixed at a 1:1 ratio and subjected to two-fold dilution as described previously. Each microplate well contained 100 μL of MHB supplemented with compounds alone, β-lactams alone or the mixture of compounds and β-lactams. Overnight cultures of S. aureus in the Müller-Hinton broth was diluted to OD595 of 0.08-0.1 in saline and added in each of the microplate well. The plates were incubated at 37° C. for 20 h. All tests were performed in duplicate and the inhibition of bacterial growth was determined by visualization. The FICI of compounds and β-lactams were calculated as followed: FICI=(MIC of combination of compound and β-lactam/MIC of compound alone)+(MIC of combination of compound and β-lactam/MIC of β-lactam alone).

MRSA strain USA300#2960 = test: as above; format: cell-based, S. aureus
Protocol: The bacterial strains used in this study were clinically isolated MRSA strains USA300#757 and #2960 which were obtained from our laboratory. Determination of the Fractional Inhibitory Concentration Index (FICI) was adopted by the Müller-Hinton broth (MHB) dilution method as previously described. Twelve serial two-fold dilutions of PC190723, F332 and F361 were prepared in the 96-well microplate with concentration ranging from 512 to 0.25 μg/mL. A series of two-fold dilutions of ampicillin, cloxacillin and cefuroxime were also prepared following the same procedure. Lastly, the compounds and the β-lactams were mixed at a 1:1 ratio and subjected to two-fold dilution as described previously. Each microplate well contained 100 μL of MHB supplemented with compounds alone, β-lactams alone or the mixture of compounds and β-lactams. Overnight cultures of S. aureus in the Müller-Hinton broth was diluted to OD595 of 0.08-0.1 in saline and added in each of the microplate well. The plates were incubated at 37° C. for 20 h. All tests were performed in duplicate and the inhibition of bacterial growth was determined by visualization. The FICI of compounds and β-lactams were calculated as followed: FICI=(MIC of combination of compound and β-lactam/MIC of compound alone)+(MIC of combination of compound and β-lactam/MIC of β-lactam alone).

| SMILES | MIC (B. subtilis 168; Bacillus subtilis, 168) | MIC (E. coli; Escherichia coli) | MIC (S. aureus 29213; Staphylococcus aureus, 29213) | MIC (B. subtilis 168) | MIC (E. coli) | MIC (S. aureus 29213) | further results |
| --- | --- | --- | --- | --- | --- | --- | --- |
| CC(C)=CCC/C(C)=C/CNc1ccc(F)c(C(N)=O)c1F [Compound F369, (E)-3-((3,7-dimethyl-2,6-octadien-1-yl)amino)-2,6-difluorobenzamide] | 50 µM (≈ 15.4 µg/mL) | > 100 µM | > 100 µM | – | – | – | – |
| NC(=O)c1c(F)ccc(N(Cc2ccc(F)c(F)c2)Cc2ccc(F)c(F)c2)c1F [Compound F363, 3-(bis(3′,4′-difluorobenzyl)amino)-2,6-difluorobenzamide] | – | – | – | >100 µM | >100 µM | 50 µM (≈ 21.2 µg/mL) | – |
| NC(=O)c1c(F)ccc(NCc2ccc(F)cc2F)c1F [Compound F364, 3-((2′,4′-difluorobenzyl)amino)-2,6-difluorobenzamide] | – | – | – | >100 µM | >100 µM | >100 µM | – |
| CCCCCC/C=C\CNc1ccc(F)c(C(N)=O)c1F [Compound F370, (Z)-2,6-difluoro-3-(2-nonenylamino)benzamide] | 6.25 µM (≈ 1.85 µg/mL) | > 100 µM | 25 µM (≈ 7.41 µg/mL) | – | – | – | – |
| CCCCCCCCCNc1cc(C(N)=O)c(F)cc1F [Compound F345, 2,4-difluoro-5-(nonylamino)benzamide] | 100 µM (≈ 29.8 µg/mL) | > 100 µM | > 100 µM | – | – | – | – |
| CCCCCCCCNc1cccc(C(N)=O)c1 [Compound F412, 3-(octylamino)benzamide] | 25 µM (≈ 6.21 µg/mL) | > 100 µM | > 100 µM | – | – | – | – |
| NC(=O)c1c(F)ccc(OCc2nc3cc(Cl)cnc3s2)c1F [PC190723, reference compound] | – | – | – | 0.5 µM (≈ 0.178 µg/mL) | >2 µM | 0.5 µM (≈ 0.178 µg/mL) | FICI with Cefotaxime (MRSA strain USA300#757): 1.02; FICI with Meropenem (MRSA strain USA300#757): 0.31; FICI with Cefotaxime (MRSA strain USA300#2960): 1.03; FICI with Meropenem (MRSA strain USA300#2960): 0.63 |
| CCCCCCCCC(=O)Nc1ccc(F)c(C(N)=O)c1F [Compound F368, 2,6-difluoro-3-nonanamidobenzamide] | > 100 µM | > 100 µM | > 100 µM | – | – | – | – |
| CCCCOCCCCNc1ccc(F)c(C(N)=O)c1F [Compound F350, 3-((4′-butoxy)butylamino)-2,6-difluorobenzamide] | > 100 µM | > 100 µM | > 100 µM | – | – | – | – |
| CCCCCCCCN(CC)c1ccc(F)c(C(N)=O)c1F [Compound F410, 3-(ethyl(octyl)amino)-2,6-difluorobenzamide] | 25 µM (≈ 7.81 µg/mL) | > 100 µM | 50 µM (≈ 15.6 µg/mL) | – | – | – | – |
| CCCCCCCCN(C)c1cccc(C(N)=O)c1 [Compound F414, 3-(methyl(octyl)amino)benzamide] | > 100 µM | > 100 µM | > 100 µM | – | – | – | – |
| CCCCCCCCCCNc1ccc(F)c(C(N)=O)c1F [Compound F334, 3-(decylamino)-2,6-difluorobenzamide] | > 100 µM | > 100 µM | > 100 µM | – | – | – | – |
| NC(=O)c1c(F)ccc(N(Cc2c(F)cccc2F)Cc2c(F)cccc2F)c1F [Compound F367, 3-(bis(2′,6′-difluorobenzyl)amino)-2,6-difluorobenzamide] | – | – | – | >100 µM | >100 µM | >100 µM | – |
| CCCCCCCCCNc1c(Br)cc(F)c(C(N)=O)c1F [Compound F371, 4-bromo-2,6-difluoro-3-(nonylamino)benzamide] | 6.25 µM (≈ 2.36 µg/mL) | > 100 µM | > 100 µM | – | – | – | – |
| CCCCCCCCNc1ccc(F)c(C(N)=O)c1F [Compound F333, 2,6-difluoro-3-(octylamino)benzamide] | 6.25 µM (≈ 1.78 µg/mL) | > 100 µM | 50 µM (≈ 14.2 µg/mL) | – | – | – | – |
| CCC(C)Oc1cccc(CNc2ccc(F)c(C(N)=O)c2F)c1 (stereo not shown) [Compound F377, 3-((3′-(sec-butoxy)benzyl)amino)-2,6-difluorobenzamide] | – | – | – | >100 µM | >100 µM | >100 µM | – |
| NC(=O)c1c(F)ccc(NCc2c(F)cccc2F)c1F [Compound F366, 3-((2′,6′-difluorobenzyl)amino)-2,6-difluorobenzamide] | – | – | – | >100 µM | >100 µM | >100 µM | – |
| CCCCCCCCCNc1cccc(C(N)=O)c1 [Compound F411, 3-(nonylamino)benzamide] | 6.25 µM (≈ 1.64 µg/mL) | > 100 µM | > 100 µM | – | – | – | – |
| CCCCCCCCCNc1ccc(F)c(C(N)=O)c1 [Compound F342, 2-fluoro-5-(nonylamino)benzamide] | 25 µM (≈ 7.01 µg/mL) | > 100 µM | > 100 µM | – | – | – | – |
| NC(=O)c1c(F)ccc(N(Cc2ccc(F)cc2F)Cc2ccc(F)cc2F)c1F [Compound F365, 3-(bis(2′,4′-difluorobenzyl)amino)-2,6-difluorobenzamide] | – | – | – | <50 µM | >100 µM | >100 µM | – |
| CCCCCCCNc1ccc(F)c(C(N)=O)c1F [Compound F391, 2,6-difluoro-3-(heptylamino)benzamide] | 50 µM (≈ 13.5 µg/mL) | > 100 µM | 50 µM (≈ 13.5 µg/mL) | – | – | – | – |
| NC(=O)c1c(F)ccc(NCc2cccc(OCc3ccc(C(F)(F)F)cc3)c2)c1F [Compound F378, 2,6-difluoro-3-((3′-((4″-(trifluoromethyl)benzyl)oxy)benzyl)amino)benzamide] | – | – | – | >100 µM | >100 µM | >100 µM | – |
| NC(=O)c1c(F)ccc(N2CCCCC2)c1F [Compound F358, 2,6-difluoro-3-(piperidin-1-yl)benzamide] | > 100 µM | > 100 µM | > 100 µM | – | – | – | – |
| NC(=O)c1c(F)ccc(NCc2ccc(F)c(F)c2)c1F [Compound F362, 3-((3′,4′-difluorobenzyl)amino)-2,6-difluorobenzamide] | – | – | – | >100 µM | >100 µM | >100 µM | – |
| CCCCCCCCCN(C)c1cccc(C(N)=O)c1 [Compound F413, 3-(methyl(nonyl)amino)benzamide] | > 100 µM | > 100 µM | > 100 µM | – | – | – | – |
| CCCCOc1cccc(CNc2ccc(F)c(C(N)=O)c2F)c1 [Compound F373, 3-((3′-butoxybenzyl)amino)-2,6-difluorobenzamide] | – | – | – | 25 µM (≈ 8.36 µg/mL) | >100 µM | 50 µM (≈ 16.7 µg/mL) | – |
| CCCCCOc1cccc(CNc2ccc(F)c(C(N)=O)c2F)c1 [Compound F376, 2,6-difluoro-3-((3′-(pentyloxy)benzyl)amino)benzamide] | – | – | – | 12.5 µM (≈ 4.35 µg/mL) | >100 µM | 50 µM (≈ 17.4 µg/mL) | – |
| CCCCCCCCN(C)c1ccc(F)c(C(N)=O)c1F [Compound F409, 2,6-difluoro-3-(methyl(octyl)amino)benzamide] | 25 µM (≈ 7.46 µg/mL) | > 100 µM | 12.5 µM (≈ 3.73 µg/mL) | – | – | – | – |
| NC(=O)c1c(F)ccc(N2CCCC2)c1F [Compound F357, 2,6-difluoro-3-(pyrrolidin-1-yl)benzamide] | > 100 µM | > 100 µM | > 100 µM | – | – | – | – |
